Assay results: patent US7605154B2, “Substituted Thiazolo [4,5-d]pyrimidines as protein kinase inhibitors” (Janssen Pharmaceutica N.V., priority 2005, dated 2009)

Biological target: T1, EGFR (Homo sapiens, UniProt P00533)
T1 construct: started at nucleotide 2189 (corresponding to amino acid 667) and ended at the termination codon; made in house; host or cells: Sf9 insect cells (baculovirus)
Assay: EGFR Kinase Assay
Type: biochemical
Settings: GST-EGFR, 5 μM ATP
Description: The portion was PCR amplified with primers that added the lambda attB sequences to each end, recombined into an entry vector, then into a, GST destination vector (as described in Gateway Technologies Manual by Invitrogen Corporation, Carlsbad, Calif.).
The destination vector was recombined in the DH10BAC strain of bacteria to produce a bacmid. The bacmid was transfected into Sf 9 cells and the supernatant containing the baculovirus was collected. The GSTEGFR protein was purified using large cultures of Sf 9 cells infected with stock virus. After an appropriate period of time, the cells were collected and lysed. The GSTEGFR was then purified from the lysate on Glutathione-Sepharose columns (as described by Amersham Biosciences, Buckinghamshire, United Kingdom).
The free biotin was separated from the biotinylated polyGluTyr on a gel filtration column.
A mixture of a 10× kinase buffer (500 mM Tris at pH 8.0, 100 mM Magnesium Chloride and 1 mM Sodium Vanadate), DTT (1 mM final from 500 mM stock), ATP (5 μM final from 10 mM stock), biotinylated polyGluTyr (10 μg/μL stock), γ-^33P ATP (10 μCi/μL stock) and water was added to each well (90 μL/well) of a Streptavidin Flashplate (Perkin Elmer, Wellesley, Mass.).
Test compound in 100% DMSO (2 μL) was added to the appropriate wells. Diluted GSTEGFR (1:300 dilution in 50 mM Tris at pH 8.0 and 0.1% bovine serum albumin) (10 μL) was added to the wells to initiate the reactions.
The plates were incubated at 30° C. for 1 hr with shaking. The reacted contents were removed and the plates were sequentially washed three times with a 1×PBS stop buffer (300 μL without Magnesium and Calcium) and 100 mM EDTA. After the final wash, the same stop buffer (200 μL) was added to the wells. The plates were then sealed and read on the TopCount scintillation counter.
Test compounds were assayed in triplicate at 16 concentrations at half-log dilutions starting at 200 uM. A maximum and minimum signal for the assay was determined on each plate. The percent inhibition of a test compound was calculated according to the formula
For a series of test concentrations, the IC50 was derived by graphing percent inhibition against the log of the concentrations tested for a given compound.

T1 sequence (P00533 667-1210 limits assumed): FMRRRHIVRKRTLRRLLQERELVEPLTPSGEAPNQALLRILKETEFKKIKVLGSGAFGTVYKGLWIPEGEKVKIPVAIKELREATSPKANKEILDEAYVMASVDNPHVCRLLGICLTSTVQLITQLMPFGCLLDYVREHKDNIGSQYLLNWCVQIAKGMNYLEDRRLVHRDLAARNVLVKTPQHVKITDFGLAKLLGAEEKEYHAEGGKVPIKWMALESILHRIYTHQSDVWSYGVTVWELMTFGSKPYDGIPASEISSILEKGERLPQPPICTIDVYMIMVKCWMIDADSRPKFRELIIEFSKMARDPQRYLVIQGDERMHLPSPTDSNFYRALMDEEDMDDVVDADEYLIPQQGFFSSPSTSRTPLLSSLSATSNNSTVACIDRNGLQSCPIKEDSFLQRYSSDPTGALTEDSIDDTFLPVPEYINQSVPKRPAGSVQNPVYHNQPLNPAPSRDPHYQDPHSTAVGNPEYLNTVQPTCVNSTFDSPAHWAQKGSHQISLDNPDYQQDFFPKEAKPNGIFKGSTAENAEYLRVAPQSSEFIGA

Row | Compound | IC50 [nM]
1 | C#Cc1cccc(Nc2ncnc3nc(Nc4ccc(CN5CCCC5)cc4)sc23)c1 [Cpd 42, N^7-(3-ethynyl-phenyl)-N^2-(4-pyrrolidin-1-ylmethyl-phenyl)-thiazolo[4,5-d]pyrimidine-2,7-diamine] | 5.42
2 | C#Cc1cccc(Nc2ncnc3nc(Nc4ccc(CN5CCCCC5)cc4)sc23)c1 [Cpd 43, N^7-(3-ethynyl-phenyl)-N^2-(4-piperidin-1-ylmethyl-phenyl)-thiazolo[4,5-d]pyrimidine-2,7-diamine] | 7.8
3 | C#Cc1cccc(Nc2ncnc3nc(Nc4ccc(CN5CCC[C@H]5CO)cc4)sc23)c1 [Cpd 44, (2S)-(1-{4-[7-(3-ethynyl-phenylamino)-thiazolo[4,5-d]pyrimidin-2-ylamino]-benzyl}-pyrrolidin-2-yl)-methanol] | 10
4 | C#Cc1cccc(Nc2ncnc3nc(Nc4ccc(S(=O)(=O)N5CCOCC5)cc4)sc23)c1 [Cpd 45, N^7-(3-ethynyl-phenyl)-N^2-[4-(morpholine-4-sulfonyl)-phenyl]-thiazolo[4,5-d]pyrimidine-2,7-diamine] | 22.5
5 | O=S(=O)(c1ccc(Nc2nc3ncnc(Nc4ccc(F)c(Cl)c4)c3s2)cc1)N1CCOCC1 [Cpd 46, N^7-(3-chloro-4-fluoro-phenyl)-N^2-[4-(morpholine-4-sulfonyl)-phenyl]-thiazolo[4,5-d]pyrimidine-2,7-diamine] | 15.5
6 | C#Cc1cccc(Nc2ncnc3nc(Nc4ccc(CN5CCN(C)CC5)cc4)sc23)c1 [Cpd 47, N^7-(3-ethynyl-phenyl)-N^2-[4-(4-methyl-piperazin-1-ylmethyl)-phenyl]-thiazolo[4,5-d]pyrimidine-2,7-diamine] | 18.2
7 | C#Cc1cccc(Nc2ncnc3nc(Nc4ccc(Cn5ccnc5CC)cc4)sc23)c1 [Cpd 48, N^2-[4-(2-ethyl-imidazol-1-ylmethyl)-phenyl]-N^7-(3-ethynyl-phenyl)-thiazolo[4,5-d]pyrimidine-2,7-diamine] | 9
8 | C#Cc1cccc(Nc2ncnc3nc(Nc4ccc(CN(C)C)cc4)sc23)c1 [Cpd 49, N^2-(4-dimethylaminomethyl-phenyl)-N^7-(3-ethynyl-phenyl)-thiazolo[4,5-d]pyriridine-2,7-diamine] | 11.8
9 | C#Cc1cccc(Nc2ncnc3nc(Nc4ccc(CCN5CCOCC5)cc4)sc23)c1 [Cpd 50, N^7-(3-ethynyl-phenyl)-N^2-[4-(2-morpholin-4-yl-ethyl)-phenyl]-thiazolo[4,5-d]pyrimidine-2,7-diamine] | 13
10 | Fc1ccc(Nc2ncnc3nc(NCCN4CCOCC4)sc23)cc1Cl [Cpd 51, N^7-(3-chloro-4-fluoro-phenyl)-N^2-(2-morpholin-4-yl-ethyl)-thiazolo[4,5-d]pyrimidine-2,7-diamine] | 918
11 | Fc1ccc(Nc2ncnc3nc(NCCCN4CCOCC4)sc23)cc1Cl [Cpd 52, N^7-(3-chloro-4-fluoro-phenyl)-N^2-(3-morpholin-4-yl-propyl)-thiazolo[4,5-d]pyrimidine-2,7-diamine] | 698

Second part, the compound after the results:

Row | IC50 [nM] | Compound
12 | 7.73 | CC(C)OCCNCc1ccc(Nc2nc3ncnc(Nc4ccc(F)c(Cl)c4)c3s2)cc1 [Cpd 53, N^7-(3-chloro-4-fluoro-phenyl)-N^2-{-4-[(2-isopropoxy-ethylamino)-methyl]-phenyl}-thiazolo[4,5-d]pyrimidine-2,7-diamine]
13 | 10 | C#Cc1cccc(Nc2ncnc3nc(Nc4ccc(CN5CCC[C@@H]5CO)cc4)sc23)c1 [Cpd 54, (2R)-(1-{4-[7-(3-ethynyl-phenylamino)-thiazolo[4,5-d]pyrimidin-2-ylamino]-benzyl}-pyrrolidin-2-yl)-methanol]
14 | 8.25 | C#Cc1cccc(Nc2ncnc3nc(Nc4ccc(CNCCOC(C)C)cc4)sc23)c1 [Cpd 55, N^7-(3-ethynyl-phenyl)-N^2-{4-[(2-isopropoxy-ethylamino)-methyl]-phenyl}-thiazolo[4,5-d]pyrimidine-2,7-diamine]
15 | 36 | COc1ccc(Cl)cc1Nc1ncnc2nc(Nc3ccc(CN4CCOCC4)cc3)sc12 [Cpd 56, N^7-(5-chloro-2-methoxy-phenyl)-N^2-(4-morpholin-4-ylmethyl-phenyl)-thiazolo[4,5-d]pyrimidine-2,7-diamine]
16 | 7 | Clc1cccc(Nc2ncnc3nc(Nc4ccc(CN5CCOCC5)cc4)sc23)c1 [Cpd 57, N^7-(3-chloro-phenyl)-N^2-(4-morpholin-4-ylmethyl-phenyl)-thiazolo[4,5-d]pyrimidine-2,7-diamine]
17 | 6.5 | C#Cc1cccc(Nc2ncnc3nc(Nc4ccc(S(=O)(=O)NCCO)cc4)sc23)c1 [Cpd 58, 4-[7-(3-ethynyl-phenylamino)-thiazolo[4,5-d]pyrimidin-2-ylamino]-N-(2-hydroxy-ethyl)-benzenesulfonamide]
18 | 11 | CN(Cc1ccc(Nc2nc3ncnc(Nc4ccc(F)c(Cl)c4)c3s2)cc1)C[C@H]1CCCO1 [Cpd 59, N^7-(3-chloro-4-fluoro-phenyl)-N^2-(4-{[methyl-(2R)-(tetrahydro-furan-2-ylmethyl)-amino]-methyl}-phenyl)-thiazolo[4,5-d]pyrimidine-2,7-diamine]
19 | 23.9 | CN(Cc1ccc(Nc2nc3ncnc(Nc4ccc(F)c(Cl)c4)c3s2)cc1)C[C@@H]1CCCO1 [Cpd 60, N^7-(3-chloro-4-fluoro-phenyl)-N^2-(4-{[methyl-(2S)-(tetrahydro-furan-2-ylmethyl)-amino]-methyl}-phenyl)-thiazolo[4,5-d]pyrimidine-2,7-diamine]
20 | 27.5 | C#Cc1cccc(Nc2ncnc3nc(Nc4ccc(CN(CC(C)O)CC(C)O)cc4)sc23)c1 (stereo not drawn) [Cpd 61, 1-[{4-[7-(3-ethynyl-phenylamino)-thiazolo[4,5-d]pyrimidin-2-ylamino]-benzyl}-(2-hydroxy-propyl)-amino]-propan-2-ol]
21 | 6.95 | C#Cc1cccc(Nc2ncnc3nc(Nc4ccc(CNCC5COC(C)(C)O5)cc4)sc23)c1 (stereo not drawn) [Cpd 62, N^2-(4-{[(2,2-dimethyl-[1,3]dioxolan-4-ylmethyl)-amino]-methyl}-phenyl)-N^7-(3-ethynyl-phenyl)-thiazolo[4,5-d]pyrimidine-2,7-diamine]
22 | 10.7 | C#Cc1cccc(Nc2ncnc3nc(Nc4ccc(CN(C)C5CCOCC5)cc4)sc23)c1 [Cpd 63]
23 | 43.4 | O=[N+]([O-])c1cc(Nc2ncnc3nc(Nc4ccc(CN5CCOCC5)cc4)sc23)ccc1F [Cpd 65, N^7-(4-fluoro-3-nitro-phenyl)-N^2-(4-morpholin-4-ylmethyl-phenyl)-thiazolo[4,5-d]pyrimidine-2,7-diamine]
24 | 3.7 | Fc1ccc(Nc2ncnc3nc(Nc4ccc(CNC[C@H]5CCCO5)cc4)sc23)cc1Cl [Cpd 67, N^7-(3-chloro-4-fluoro-phenyl)-N^2-(4-{[(2R)-(tetrahydro-furan-2-ylmethyl)-amino]-methyl}-phenyl)-thiazolo[4,5-d]pyrimidine-2,7-diamine]
25 | 28.6 | C#Cc1cccc(Nc2ncnc3nc(Nc4ccc(OC)nc4)sc23)c1 [Cpd 69, N^7-(3-ethynyl-phenyl)-N^2-(6-methoxy-pyridin-3-yl)-thiazolo[4,5-d]pyrinidine-2,7-diamine]
26 | 19.6 | COc1ccc(Nc2nc3ncnc(Nc4ccc(F)c(Cl)c4)c3s2)cn1 [Cpd 70, N^7-(3-chloro-4-fluoro-phenyl)-N^2-(6-methoxy-pyridin-3-yl)-thiazolo[4,5-d]pyrimidine-2,7-diamnine]
27 | 44 | Nc1ccc(Nc2nc3ncnc(Nc4ccc(F)c(Cl)c4)c3s2)cn1 [Cpd 71, N^2-(6-amino-pyridin-3-yl)-N^7-(3-chloro-4-fluoro-phenyl)-thiazolo[4,5-d]pyrimidine-2,7-diamine]
